Experimental data taken from the NIST ThermoML archive (doi:10.1016/j.fluid.2018.01.030).

Columns and labels:
[1] = wn = mass fraction of the nth substance listed; settings: for surface tension liquid-gas: Pendant drop shape; for viscosity / mass density: 101 kPa, Liquid; for viscosity: Capillary tube (Ostwald / Ubbelohde) method; for mass density: Pycnometric method
[2] = 101.33 kPa, Liquid; for viscosity: Capillary tube (Ostwald / Ubbelohde) method; for mass density: Pycnometric method

OCCNCCO [diethanolamine] + O
surface tension liquid-gas [mN/m], [1]
Settings | 313.2 K | 323.2 K | 333.2 K
w1 = 0.1 | 60.42 | 59.18 | 58.85
w1 = 0.2 | 63.07 | 62.23 | 60.56
w1 = 0.3 | 61.57 | 60.13 | 58.43

NCCN1CCNCC1 [N-(β-aminoethyl)piperazine)]
[2]
Settings | mass density [kg/m3] | viscosity [mPa·s]
303.2 K | 981.129 | 14.18
313.2 K | 977.356 | 8.669
323.2 K | 973.989 | 5.626
333.2 K | 969.461 | 4.481
343.2 K | 965.122 | 3.697

CN(CCO)CCO [N-methyldiethanolamine] + O
[1]
Settings | mass density, 303.2 K [kg/m3] | mass density, 313.2 K [kg/m3] | mass density, 323.2 K [kg/m3] | mass density, 333.2 K [kg/m3] | viscosity, 303.2 K [mPa·s] | viscosity, 313.2 K [mPa·s] | viscosity, 323.2 K [mPa·s] | viscosity, 333.2 K [mPa·s]
w1 = 0.1 | 1003.8 | 999.5 | 995.2 | 990.5 | 1.164 | 0.912 | 0.752 | 0.635
w1 = 0.2 | 1012.4 | 1008.4 | 1003.5 | 998.6 | 1.635 | 1.314 | 1.06 | 0.867
w1 = 0.3 | 1024.5 | 1019.5 | 1015.2 | 1008.2 | 2.634 | 1.946 | 1.517 | 1.219
